According to US9757369B2, “Heterocyclic GSK-3 allosteric modulators” (Consejo Superior de Investigaciones Cientificas (CSIC), priority 2011, dated 2017):
Entries after “also recorded” stand apart in the source; their conditions may differ.

target: recombinant human GSK3 enzyme (GSK-3β) (Homo sapiens, UniProt P49841); assay: Measurement of the inhibition of GSK-3β (Kinase-Glo luminometric assay); format: biochemical; conditions: 25 μM substrate, 1 μM ATP, 30 min at 30 °C
Protocol: The enzyme inhibition assays were performed using the luminometric methodology of Kinase-Glo®. […] The luminescent kinase kit (catalogue no. V6711) was obtained from Promega. The ATP and the other reagents were purchased from Sigma-Aldrich (St. Louis, Mo.).
The assays were performed in buffer using 96-well plates. 10 µl of the compound to be assayed (dissolved in DMSO at a concentration of 1 mM, and, in turn, dissolved in buffer to the concentration necessary for the experiment) and 10 µl (20 ng) of the enzyme are added to each well, followed by 20 µl of buffer containing 25 µM of the substrate and 1 µM of ATP. […] Following a half-hour incubation at 30° C., the enzymatic reaction is stopped with 40 µl of the Kinase-Glo® reagent. The luminescence is measured after ten minutes, using a POLARstar Optima multimode reader. The activity is proportional to the difference between the total ATP and the ATP consumed. The inhibitory activities were calculated as a function of the maximum activity, measured in the absence of inhibitor.

SMILES	IC50
CCCCCCCC(=O)NNC(=O)c1c(O)c2ccccc2n(C)c1=O [Compound 3, 4-Hydroxy-1-methyl-N′-octanoyl-2-oxo-1,2-dihydroquinoline-3-carbohydrazide]	8.67 ± 0.4 µM
CCCCCCCCCCCC(=O)NNC(=O)c1c(O)c2ccccc2n(C)c1=O [Compound 4, N′-Dodecanoyl-4-hydroxy-1-methyl-2-oxo-1.2-dihydroquinoline-3-carbohydrazide]	7.35 ± 0.23 µM
CCCCCCCCCCCC(=O)NNC(=O)c1c(O)c2ccccc2n(CC)c1=O [Compound 6, N′-Dodecanoyl-1-ethyl-4-hydroxy-2-oxo-1,2-dihydroquinoline-3-carbohydrazide]	2.85 ± 0.36 µM
CCCCCCCCCCCC(=O)NNC(=O)c1c(O)c2ccccc2n(CC2CC2)c1=O [Compound 45, 1-(cyclopropylmethyl)-N′-dodecanoyl-4-hydroxy-2-oxo-1,2-dihydroquinoline-3-carbohydrazide]	5.25 ± 0.58 µM
CCCCCCCCCCCC(=O)NNC(=O)c1c(O)c2ccccc2n(Cc2ccccc2)c1=O [Compound 46, 1-Benzyl-N′-dodecanoyl-4-hydroxy-2-oxo-1,2-dihydroquinoline-3-carbohydrazide]	5.51 ± 0.27 µM
CCCCCCCC(=O)NNC(=O)c1c(O)c2cc(Br)ccc2n(C)c1=O [Compound 49, 6-Bromo-4-hydroxy-1-methyl-N′-octanoyl-2-oxo-1,2-dihydroquinoline-3-carbohydrazide]	6.28 ± 0.33 µM
CCCCCCCCCCCC(=O)NNC(=O)c1c(O)c2cc(Br)ccc2n(C)c1=O [Compound 50, 6-Bromo-N′-dodecanoyl-4-hydroxy-1-methyl-2-oxo-1,2-dihydroquinoline-3-carbohydrazide]	4.28 ± 0.5 µM
CCCCCCCC(=O)NNC(=O)c1c(O)c2cc(Br)ccc2n(CC)c1=O [Compound 51, 6-Bromo-1-ethyl-4-hydroxy-N′-octanoyl-2-oxo-1,2-dihydroquinoline-3-carbohydrazide]	7.34 ± 0.2 µM
CCCCCCCCCCCC(=O)NNC(=O)c1c(O)c2cc(Br)ccc2n(CC)c1=O [Compound 52, 6-Bromo-N′-dodecanoyl-1-ethyl-4-hydroxy-2-oxo-1,2-dihydroquinoline-3-carbohydrazide]	2.01 ± 0.18 µM
CCCCCCCC(=O)NNC(=O)c1c(O)c2cc(Cl)ccc2n(C)c1=O [Compound 53, 6-Chloro-4-hydroxy-1-methyl-N′-octanoyl-2-oxo-1,2-dihydroquinoline-3-carbohydrazide]	8.48 ± 0.3 µM
CCCCCCCCCCCC(=O)NNC(=O)c1c(O)c2cc(Cl)ccc2n(C)c1=O [Compound 54, 6-Chloro-N′-dodecanoyl-4-hydroxy-1-methyl-2-oxo-1,2-dihydroquinoline-3-carbohydrazide]	5.95 ± 0.49 µM
CCCCCCCC(=O)NNC(=O)c1c(O)c2cc(Cl)ccc2n(CC)c1=O [Compound 55, 6-Chloro-1-ethyl-4-hydroxy-N′-octanoyl-2-oxo-1,2-dihydroquinoline-3-carbohydrazide]	9.42 ± 0.23 µM
CCCCCCCCCCCC(=O)NNC(=O)c1c(O)c2cc(Cl)ccc2n(CC)c1=O [Compound 56, 6-Chloro-N′-dodecanoyl-1-ethyl-4-hydroxy-2-oxo-1,2-dihydroquinoline-3-carbohydrazide]	3.18 ± 0.28 µM
CCCCCCCC(=O)NNC(=O)c1c(O)c2ccc(Cl)cc2n(C)c1=O [Compound 57, 7-Chloro-4-hydroxy-1-methyl-N′-octanoyl-2-oxo-1,2-dihydroquinoline-3-carbohydrazide]	6.66 ± 0.29 µM
CCCCCCCCCCCC(=O)NNC(=O)c1c(O)c2ccc(Cl)cc2n(C)c1=O [Compound 58, 7-Chloro-N′-dodecanoyl-4-hydroxy-1-methyl-2-oxo-1,2-dihydroquinoline-3-carbohydrazide]	4.03 ± 0.19 µM
CCCCCCCC(=O)NNC(=O)c1c(O)c2ccc(Cl)cc2n(CC)c1=O [Compound 59, 7-Chloro-1-ethyl-4-hydroxy-N′-octanoyl-2-oxo-1,2-dihydroquinoline-3-carbohydrazide]	4.83 ± 0.23 µM
CCCCCCCCCCCC(=O)NNC(=O)c1c(O)c2ccc(Cl)cc2n(CC)c1=O [Compound 60, 7-Chloro-N′-dodecanoyl-1-ethyl-4-hydroxy-2-oxo-1,2-dihydroquinoline-3-carbohydrazide]	2.48 ± 0.26 µM
CCCCCCCC(=O)NNC(=O)c1c(O)c2ccc(Cl)cc2n(Cc2ccccc2)c1=O [Compound 61, 1-Benzyl-7-chloro-4-hydroxy-N′-octanoyl-2-oxo-1,2-di hydroquinoline-3-carbohydrazide]	5.96 ± 0.17 µM
CCCCCCCCCCCC(=O)NNC(=O)c1c(O)c2ccc(Cl)cc2n(Cc2ccccc2)c1=O [Compound 62, 1-Benzyl-7-chloro-N′-dodecanoyl-4-hydroxy-2-oxo-1,2-dihydroquinoline-3-carbohydrazide]	5.99 ± 0.22 µM
CCCCCCCCCCCC(=O)N(Cc1ccccc1)NC(=O)c1c(O)c2ccccc2n(Cc2ccccc2)c1=O [Compound 63, N′-1-dibenzyl-N′-dodecanoyl-4-hydroxy-2-oxo-1,2-dihydroquinoline-3-carbohydrazide]	6.84 ± 0.51 µM

system: GSK-3β; assay: Study of the inhibition of GSK-3β as a function of enzyme-inhibitor pre-incubation time; format: biochemical, human; conditions: different enzyme incubation times, two inhibitor concentrations
Protocol: In order to determine the binding mode of these compounds, different kinetic studies were performed, varying the reaction times and the ATP concentration and the substrate concentration.

SMILES	reversibility of enzyme inhibition
CCCCCCCCCCCC(=O)NNC(=O)c1c(O)c2ccccc2n(CC)c1=O [Compound 6, N′-Dodecanoyl-1-ethyl-4-hydroxy-2-oxo-1,2-dihydroquinoline-3-carbohydrazide]	reversible inhibitor

target: GSK-3β (Homo sapiens, UniProt P49841); assay: Kinetic study varying ATP concentration (ADP-Glo Kinase Assay, double-reciprocal plot); format: biochemical; conditions: ATP 1 to 50 μM, GS-2 12.5 μM, inhibitor 5 to 10 μM
Protocol: The ATP concentrations were varied from 1 to 50 µM, whereas the concentration of the GS-2 peptide was kept constant at 12.5 µM. The concentrations of inhibitor (compound 6) used are shown in the plot.
The kinetic studies conducted by varying the ATP concentration from 1 to 50 µM, and the concentration of inhibitor 6 from 5 to 10 µM, were performed using the ADP-Glo™ Kinase Assay.

SMILES	mode of inhibition versus ATP
CCCCCCCCCCCC(=O)NNC(=O)c1c(O)c2ccccc2n(CC)c1=O [Compound 6, N′-Dodecanoyl-1-ethyl-4-hydroxy-2-oxo-1,2-dihydroquinoline-3-carbohydrazide]	non-ATP-competitive inhibitor

system: GSK-3β; assay: Kinetic study varying GS-2 peptide substrate concentration (double-reciprocal plot); format: biochemical, human; conditions: GS-2 15.5 to 100 μM, ATP 1 μM, inhibitor 5 to 10 μM
Protocol: The GS-2 concentrations were varied from 15.5 to 100 µM, whereas the ATP concentration was kept constant at 1 µM. The concentrations of inhibitor (compound 6) used are shown in the plot.
On the other hand, we also studied the dependence of GSK-3β activity in the presence of these inhibitors as a function of the concentration of the substrate, the GS-2 peptide, used in the assays.

SMILES	mode of inhibition versus substrate GS-2
CCCCCCCCCCCC(=O)NNC(=O)c1c(O)c2ccccc2n(CC)c1=O [Compound 6, N′-Dodecanoyl-1-ethyl-4-hydroxy-2-oxo-1,2-dihydroquinoline-3-carbohydrazide]	substrate-non-competitive inhibitor

system: RAW 264.7 cells; assay: Anti-inflammatory activity: nitrite production (Griess method) in LPS-stimulated RAW 264.7 cells; format: cell-based; conditions: 1.25, 2.5, 5 and 10 μM; 1 h pre-treatment, 0.4 μg/ml LPS 24 h
Protocol: A monolayer culture of RAW 264.7 cells growing in 96-well plates is used. The cells are treated for 1 h with the compounds evaluated. Subsequently, the inflammatory activity is stimulated with 0.4 µg/ml of LPS for 24 h. Once this time has elapsed, the production of nitrites is evaluated by means of the Griess method. Briefly, 50 µl of supernatant are transferred to 96-well plates and 50 µl of Griess reagent are added. The mixture is incubated for 15 minutes at room temperature and the absorbance at 520 nm is measured in a microplate reader.

SMILES	decrease in nitrite release
CCCCCCCCCCCC(=O)NNC(=O)c1c(O)c2ccccc2n(CC)c1=O [Compound 6, N′-Dodecanoyl-1-ethyl-4-hydroxy-2-oxo-1,2-dihydroquinoline-3-carbohydrazide]	dose-dependent effect on the decrease in nitrite release; also recorded: decrease in inflammatory activity
